Measured values as given in publication PMC9166630, “SAR Probing of KX2-391 Provided Analogues With Juxtaposed Activity Profile Against Major Oncogenic Kinases” (Frontiers in Oncology, 2022).
Like-named read-outs stand apart in the source and are kept apart here.

Assays:
[1] = tested on: HCT116 cell line; test: MTT anti-proliferative assay, HCT116; assay type: cell-based, human; details: Homo sapiens, HCT-116, 72 h, maximum tested concentration 50 µM, read-out: IC50 ± SEM, HCT116
Method: The test compounds were evaluated for anti-proliferative activity using the MTT viability assay against HCT116 cell line. Cells were seeded in triplicate in 96-well plates at a density of 10x 10^3 cells/mL in a total volume of 200 µL per well. 0.1% of DMSO was used as a vehicle control. Each well was treated with 2 µL test compounds, which had been pre-prepared as stock solutions in […] to furnish the concentration range of study, 0.1 µM to 50 µM, and re-incubated for a further 72 h at 37°C in a humidified atmosphere containing 5% CO2. The culture medium was then removed, and the cells were washed with 100 µL PBS and 100 µL MTT was added, to reach a final concentration of 1 mg/mL MTT. Cells were incubated for 3 h in darkness at 37°C. After that, MTT solution was removed and MTT was solubilized by adding […] DMSO. The cells were maintained at room temperature in darkness for 20 min to ensure thorough color diffusion before reading the absorbance using a microplate reader at 570 nm. All experiments were conducted in triplicates. Results were expressed as percentage viability relative to vehicle control (100%). Dose response curves were plotted and IC50 values (concentration of drug resulting in 50% reduction in cell survival) were obtained using the commercial software package Prism (GraphPad Software, Inc., La Jolla, CA, USA).

[2] = tested on: MV4-11 leukemia cell line; test: CellTiter-Blue cell viability assay, MV4-11; assay type: cell-based; details: Homo sapiens, CellTiter-Blue, 48 h, maximum tested concentration 20 µM, read-out: IC50 ± SEM, MV4-11
Method: (§1) HL60, K562, MV4-11 and NB4 were purchased from CLS Cell Line Service GmbH (Eppelheim, Germany). All cell lines were cultured in RPMI-1640 medium supplemented with 10% fetal bovine serum (FBS) (Thermo Fisher Scientific) and 0.1% ciprofloxacin (2.5mg/ml; Cipla Limited; Mumbai, India), and were maintained at 37°C in the presence of 21% O2 and 5% CO2.
(§2) Cell viability was determined using the CellTiter®-Blue Cell Viability Assay kit (Promega, Madison, WI, USA). Approximately 10^4 cells were counted and plated in a 96-well plate in the presence of test compounds ranging from 0.01 to 10 or 20 µM in triplicate and were incubated for 48 h at 37°C in a humidified incubator. After the incubation period was complete, 20 µL of CellTiter®-Blue Cell Viability Assay reagent was added to each well and incubated for additional 2 h for the development of florescence. Florescence was measured at Ex/Em 540/590 on SpectraMax® i3 Multi-Mode microplate reader (Molecular Devices, LLC; San Jose, CA, USA) and plotted against drug concentration to determine the IC50 of the test compounds. The IC50 was obtained by non-linear regression model using GraphPad Prism 6.07 (GraphPad Software, Inc, USA).

[3] = tested on: NB4 leukemia cell line; test: CellTiter-Blue cell viability assay, NB4; assay type: cell-based, human; details: 48 h, CellTiter-Blue, 48 h, maximum tested concentration 20 µM, read-out: IC50 ± SEM, NB4
Method: as §1, §2

[4] = tested on: human skin fibroblasts (HSF); test: Normal cell line assay; assay type: cell-based; details: Skin fibroblast
Method: In addition to having a good physicochemical profile, it is important for a studied lead to differentiate between cancer cells and highly proliferating non-cancerous cells. Therefore, we assessed compounds 4e and 4n for both the in silico and in vitro physicochemical characteristics as well as for cytotoxic effect on human skin fibroblasts (HSF) cell lines.
The effect of the two compounds was evaluated for their effect on the growth and proliferation human skin fibroblasts (HSF) as an example of non-cancerous cell lines.

[5] = Stability in mouse liver microsomes; assay type: in vitro ADME; details: for half-life: male, CD-1, mouse liver microsomes with NADPH, 37°C, read-out: Stability MLM t1/2; for Mic. Ctrl. Mouse % 60 min: mouse liver microsomes, no NADPH added
Method: Both mouse and human liver microsomes were obtained from Merck KGaA, (Darmstadt, Germany), Cat. No. M9441 (Mouse liver microsomes) and M0317 (Human liver microsomes). Assays were conducted in triplicate in 96-deep well polypropylene plates. […] At five time points, reaction mixture aliquots were transferred to 96-shallow well stop plates on ice containing acetonitrile with 0.1 µM propafenone. […] Standard curves for test compound were generated using 5 concentrations in triplicate that were processed as above but with zero incubation time. Stop plates were centrifuged at 2000 g for 10 min and then supernatant aliquots were transferred to a Waters Aquity® UPLC 700 µL 96-well sample plate with cap mat (Waters, Milford, MA). The amount of compound remaining in the supernatant was quantified by LC/MS/MS using a Waters Xevo TQ MS (electrospray positive mode) coupled to a Waters Aquity® UPLC (BEH column, C18). Propafenone was used as the internal standard. GraphPad® Prism v 5.04 was used for nonlinear fitting of time course data to generate t1/2 values.

[6] = target: T1, CYP2D6 (Homo sapiens, UniProt P10635); test: Inhibition assay of human CYP450 enzymes, 2D6; assay type: in vitro ADME; details: for IC50: fluorescent substrate; for no inhibition of CYP2D6 at concentrations up to: the values are: IC50
T1 construct: purchased Fisher Scientific; host or cells: insect cells (supersomes)
Method: The two compounds 4e and 4n were assessed for their ability to inhibit the three major human CYP450 enzymes, 3A4, 2D6 and 2C9. Assays were run in triplicate. Expressed enzymes in insect supersomes (Fisher Scientific, Waltham, MA) were used to minimize non-specific binding and membrane partitioning issues ([68]). The 3A4 assay uses testosterone as a substrate and analysis was performed by LC/MS/MS on a Waters Xevo TQ instrument as described above using positive electrospray ionization. Assay acceptance criteria was 20% for all standards and 25% for the LLOQ. The 2D6 and 2C9 assays use fluorescent substrates (3-[2-(N,N-diethylamino)ethyl]-7-methoxy-4-methylcoumarin for 2D6; 7-methoxy-4-(trifluoromethyl)coumarin for 2C9) and were analyzed on an Envision plate reader. GraphPad® Prism v 5.04 was used for nonlinear fitting of data to generate IC50 values.

T1 sequence (P10635 whole entry): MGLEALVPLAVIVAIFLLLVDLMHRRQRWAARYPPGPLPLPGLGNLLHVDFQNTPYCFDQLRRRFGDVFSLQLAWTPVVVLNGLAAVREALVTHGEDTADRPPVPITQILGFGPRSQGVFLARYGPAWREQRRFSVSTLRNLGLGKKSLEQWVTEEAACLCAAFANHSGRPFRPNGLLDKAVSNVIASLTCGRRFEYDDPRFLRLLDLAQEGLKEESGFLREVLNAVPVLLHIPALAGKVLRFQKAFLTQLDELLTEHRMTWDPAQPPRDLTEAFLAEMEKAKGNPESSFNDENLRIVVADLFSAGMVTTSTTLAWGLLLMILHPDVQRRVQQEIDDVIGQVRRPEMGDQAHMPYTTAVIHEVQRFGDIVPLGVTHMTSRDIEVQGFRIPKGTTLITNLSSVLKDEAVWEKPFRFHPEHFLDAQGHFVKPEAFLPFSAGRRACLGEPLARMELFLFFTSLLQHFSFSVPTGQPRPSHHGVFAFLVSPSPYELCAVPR

| SMILES | IC50 [1] | IC50 [2] | IC50 ([3]; Homo sapiens) | IC50 [4] | half-life [5] | Mic. Ctrl. Mouse % 60 min [5] | IC50 [6] | no inhibition of CYP2D6 at concentrations up to [6] | IC50 [3] |
| --- | --- | --- | --- | --- | --- | --- | --- | --- | --- |
| O=C(Cc1ccc(NC(=O)c2cccc(Cl)n2)cc1)NCc1ccccc1 [Compound 4n, N-(4-(2-(benzylamino)-2-oxoethyl)phenyl)-6-chloropicolinamide] | 10800 nM | 1960 ± 470 nM | 1540 ± 660 nM | 270 ± 30 nM | 3.1 min | 5.0% | > 10000 nM | > 10 µM |  |
| O=C(Cc1ccc(NC(=O)c2cccc(Cl)c2)cc1)NCc1ccccc1 [Compound 4e, N-(4-(2-(benzylamino)-2-oxoethyl)phenyl)-3-chlorobenzamide] | 16800 ± 2690 nM | 1900 ± 80 nM | 960 nM | > 20000 nM | > 60 min | 73% | > 10000 nM | > 10 µM | 940 nM |
